Measured values published in patent US11071726B2, “Treating gastric cancer using combination therapies comprising liposomal irinotecan, oxaliplatin, 5-fluorouracil (and leucovorin)” (Ipsen Biopharm Ltd., priority 2016, dated 2021).
Read-outs that look alike come from different tables or passages of the source. Blank lines part the entries; values can stand above or below the compound they belong to.

What was measured:
[1] = cited from earlier work
[2] = human, in vivo
Topoisomerase I = target: T1, Topoisomerase I (Homo sapiens, UniProt P11387); conditions: metabolite formed by nonspecific carboxylesterases; cited from earlier work
T1 sequence (P11387 1-765): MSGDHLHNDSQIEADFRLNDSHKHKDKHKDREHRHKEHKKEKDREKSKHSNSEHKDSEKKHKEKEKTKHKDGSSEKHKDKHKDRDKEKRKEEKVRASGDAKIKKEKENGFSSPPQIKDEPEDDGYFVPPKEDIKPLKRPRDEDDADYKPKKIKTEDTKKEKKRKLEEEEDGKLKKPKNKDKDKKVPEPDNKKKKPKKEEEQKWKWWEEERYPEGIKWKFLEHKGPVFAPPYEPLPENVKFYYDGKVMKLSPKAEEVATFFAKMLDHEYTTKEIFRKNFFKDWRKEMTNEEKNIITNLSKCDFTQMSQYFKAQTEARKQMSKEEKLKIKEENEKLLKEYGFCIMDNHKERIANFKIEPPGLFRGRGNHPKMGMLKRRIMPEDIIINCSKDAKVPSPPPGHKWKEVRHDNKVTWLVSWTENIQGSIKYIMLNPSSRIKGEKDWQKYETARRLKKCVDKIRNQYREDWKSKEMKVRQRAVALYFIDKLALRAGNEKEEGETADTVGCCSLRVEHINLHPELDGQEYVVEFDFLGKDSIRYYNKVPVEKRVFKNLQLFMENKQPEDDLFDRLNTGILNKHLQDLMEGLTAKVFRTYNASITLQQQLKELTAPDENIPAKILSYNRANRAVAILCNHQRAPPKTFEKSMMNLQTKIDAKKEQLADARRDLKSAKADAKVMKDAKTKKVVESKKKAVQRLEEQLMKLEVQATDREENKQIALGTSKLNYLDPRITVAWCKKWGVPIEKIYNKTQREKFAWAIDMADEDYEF

[3] = single-agent irinotecan 350 mg/m^2 once every-3-weeks, cited from earlier work

Compound: FOLFIRINOX
incidence of most common Grade 3-4 adverse events (neutropenia, fatigue, vomiting, diarrhea, thrombocytopenia, sensory neuropathy, anemia, elevated ALT, thromboembolism, febrile neutropenia) ([1]; Phase 3 study of the FOLFIRINOX combination): ≥ 5%
toxicity ([1]; first-line treatment): significant toxicity

consecutive doses of dose level 1 received by any patient [2]: ≤ 2
patients administered dose level 1 on day 15 of cycle 1 [2]: 3
patients administered dose level −1 on days 1 and 15 of cycle 1 [2]: 6
Compound: irinotecan sucrose octasulfate salt liposome injection [MM-398]

Compound: CCc1c2c(nc3ccc(O)cc13)-c1cc3c(c(=O)n1C2)COC(=O)[C@]3(O)CC [SN-38]
activity relative to irinotecan (Topoisomerase I): 100-1000 fold

Compound: CCc1c2c(nc3ccc(OC(=O)N4CCC(N5CCCCC5)CC4)cc13)-c1cc3c(c(=O)n1C2)COC(=O)[C@]3(O)CC [irinotecan, (S)-4,11-diethyl-3,4,12,14-tetrahydro-4-hydroxy-3,14-dioxo1H-pyrano[3′,4′:6,7]-indolizino[1,2-b]quinolin-9-yl-[1,4′bipiperidine]-1′-carboxylate]
incidence of grade 4 neutropenia ([3]; patients heterozygous (UGT1A1 6/7 genotype)): 12.5%
incidence of grade 4 neutropenia ([3]; patients homozygous for the UGT1A1*28 allele): ≤ 50%
grade 4 neutropenia ([3]; patients homozygous for the wild-type allele (UGT1A1 6/6 genotype)): no grade 4 neutropenia was observed
